SMILES	melting point [°C]
O=C1c2ccccc2C(=O)N1C[C@H]1CN2C(=O)C[C@@H]2O1 (racemic)	137 to 138
CC(=O)NC[C@H]1CN(c2ccc(N3CCC(CC#N)CC3)cc2)C(=O)O1	150 to 152
COC(=O)c1ccc(S(=O)(=O)C[N+](=O)[O-])cc1	106 to 108
COCCOc1ccc(/C=C/CO)c(Oc2ncc(C(F)(F)F)cc2Cl)c1	119 to 121
COc1cc(C2CCN(C[C@@H](C)O)CC2)ccc1Nc1ncc2ccc(-c3ccccc3N(C)S(C)(=O)=O)n2n1	91 to 103
Cl/C(=C/n1cncn1)c1ccc(Br)cc1Cl	84
CCCNC(C)=C1C(=O)OC(=O)C(C(=O)C=Cc2cccc(OC)c2OC)=C1O	180 to 185
N#Cc1ccc(CN2CC=C(/C=C/c3ccc(F)cc3)CC2)cc1	150 to 152
CC1(C)Sc2nccn2C1=NOC(=O)CNSCNC(=O)ON=C1n2ccnc2SC1(C)C	177 to 180
CC(=O)c1ccc2oc3nc(N)c(C(=O)O)cc3c(=O)c2c1	> 300
CCOC(=O)C(=NO)C1=Nc2ccc(Cl)cc2C(c2ccccc2Cl)=NC1	219 to 221
COc1ccc(C2=NN(C3CCN(S(=O)(=O)c4ccc(C)cc4)CC3)C(=O)CC2)cc1OC	179 to 184
Cn1c(=O)c(-c2c(Cl)cccc2Cl)cc2cnc(Nc3ccccc3)nc21	247 to 249
COc1c(Cc2c[nH]c3cccc(C(=O)O)c23)[nH]c(=O)c(CC(C)C)[n+]1[O-]	160 to 164
Cc1nc2c(O[C@@H]3c4ccccc4C[C@H]3O)cc(Cl)cn2c1N (relative stereo)	223 to 225
O=C(/C=C/c1cccnc1)N1CCN(C(=O)c2cc(C(F)(F)F)cc(C(F)(F)F)c2)[C@H](Cc2c[nH]c3ccccc23)C1	86.5 to 89.5
COc1ccccc1NC(=O)Nc1nc(Oc2ccc3ccccc3c2)nc(N2Cc3ccccc3CC2C(=O)O)n1 (stereo unspecified)	230 to 235
CCn1ncc2c(NCC3CCC(CO)CC3)c3ccccc3nc21 (stereo unspecified)	188 to 190

SMILES	melting point [°C]
COC(=O)c1c(Cn2cncn2)nc2cc(OC)c(OC)cc2c1-c1ccc(OC)c(OC)c1	218 to 220
CC(C)CC(NC(=O)C(Cc1ccccn1)NC(=O)C(Cc1cccc2ccccc12)NC(=O)OCc1ccccc1)C(O)CC(=O)NCCc1ccccn1 (mixture of isomers)	128 to 133
CO[C@@]1(C)O[C@@H]2[C@H](OCc3ccccc3)OC[C@H](OC(=O)c3ccc([N+](=O)[O-])cc3)[C@H]2O[C@]1(C)OC	58 to 59
NC(=O)CCN1CCC(c2noc3cc(F)ccc23)CC1	144 to 147
C[Si](O)(Cn1cncn1)c1ccc(-c2ccccc2)cc1 (stereo unspecified)	97 to 99
CN1N=C2C(=Cc3ccccc3)CNCC2C1c1ccccc1 (stereo unspecified)	115 to 117
Cc1cccc2c1N(CC(=O)N1CC3CCC(CC3)C1)CC(NC(=O)Nc1cccc(Br)c1)N=C2c1ccccc1F (stereo unspecified)	> 250
CN1CCC(C2(C(N)=O)Cc3ccc([N+](=O)[O-])cc3C2=O)CC1 (stereo unspecified)	189 to 190
CCN(CC)c1ccc(C2(c3c(C)n(CC)c4ccccc34)OC(=O)c3ccccc32)c(OC(C)C)c1 (stereo unspecified)	193
CC(=O)NC1CCCCC1Sc1ccccc1 (stereo unspecified)	132 to 133
O=C(c1cccc(-c2cc3ccccc3[nH]2)c1)c1cc2ccccc2[nH]1	206 to 207
CC1(C)CC(=O)Nc2ccc(-c3cccc(Cl)c3)cc21	211 to 215
Cc1nc(C(C)(C)C)ccc1/C=C/C(=O)Nc1ccc2[nH]c(CO)cc2c1	213
O=c1c2c(CC3CCCCC3)n[nH]c2c2cccnc2n1-c1ccccc1	280 to 281
CCOc1ccc(S(=O)(=O)N2CCN(C)CC2)cc1C=O	107 to 108
Oc1c(C2NCCc3ccccc32)ccc2ccccc12 (stereo unspecified)	117 to 120
CS(=O)(=O)Nc1ccc(OCCCI)cc1	109 to 111
CC(C)(C)n1nnc(Cc2ccc(CCC(=O)O)cc2)n1	139 to 141

— a melting point compilation (Tetko et al.; mined from patent text by program, amines drawn as free bases though some values may be those of a salt)
